Laboratory results published in the supplement of paper PMC10307832.

Legend:
Experiment in all cases: relative viability (nuclei count vs DMSO), 5 days (fraction); higher = more cells survive
MK-2206 + Decitabine = compound: NC1(c2ccc(-c3nc4ccn5c(=O)[nH]nc5c4cc3-c3ccccc3)cc2)CCC1 [MK-2206] + Nc1ncn([C@H]2C[C@H](O)[C@@H](CO)O2)c(=O)n1 [Decitabine] (partner 2 µM)
Method in brief: (§1)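 Lung cancer cell lines were seeded in 1536-well plates and dosed by pin tool the next day, with either a single drug or a fixed anchor-drug dose combined with five library-drug doses (not always all listed) spaced in √10 steps. Five days later, one step fixed the cells and stained their nuclei (final 0.05% Triton X-100, 1% formaldehyde, 1 ug/ml Hoechst), and nuclei were counted on 4× images. Relative viability is the nuclei count in treated wells divided by the count in vehicle wells, and each value is the median of duplicate plates.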

MK-2206 + Pictilisib = compound: NC1(c2ccc(-c3nc4ccn5c(=O)[nH]nc5c4cc3-c3ccccc3)cc2)CCC1 [MK-2206] + CS(=O)(=O)N1CCN(Cc2cc3nc(-c4cccc5[nH]ncc45)nc(N4CCOCC4)c3s2)CC1 [Pictilisib] (partner 1 µM)
Method in brief: as §1

MK-2206 + Crizotinib = compound: NC1(c2ccc(-c3nc4ccn5c(=O)[nH]nc5c4cc3-c3ccccc3)cc2)CCC1 [MK-2206] + C[C@@H](Oc1cc(-c2cnn(C3CCNCC3)c2)cnc1N)c1c(Cl)ccc(F)c1Cl [Crizotinib] (partner 1 µM)
Method in brief: as §1

MK-2206 + OSI-027 = compound: NC1(c2ccc(-c3nc4ccn5c(=O)[nH]nc5c4cc3-c3ccccc3)cc2)CCC1 [MK-2206] + COc1cccc2cc(-c3nc([C@H]4CC[C@H](C(=O)O)CC4)n4ncnc(N)c34)[nH]c12 [OSI-027] (partner 0.5 µM)
Method in brief: as §1

Pictilisib + Foretinib = compound: CS(=O)(=O)N1CCN(Cc2cc3nc(-c4cccc5[nH]ncc45)nc(N4CCOCC4)c3s2)CC1 [Pictilisib] + COc1cc2c(Oc3ccc(NC(=O)C4(C(=O)Nc5ccc(F)cc5)CC4)cc3F)ccnc2cc1OCCCN1CCOCC1 [Foretinib] (partner 0.25 µM)
Method in brief: as §1

Row | Cell Line | relative viability (MK-2206 + Decitabine; first compound 0.01 µM) | relative viability (MK-2206 + Decitabine; first compound 0.03162 µM) | relative viability (MK-2206 + Decitabine; first compound 0.3162 µM) | relative viability (MK-2206 + Decitabine; first compound 1 µM) | relative viability (MK-2206 + Pictilisib; first compound 0.01 µM) | relative viability (MK-2206 + Pictilisib; first compound 0.03162 µM) | relative viability (MK-2206 + Pictilisib; first compound 0.3162 µM) | relative viability (MK-2206 + Pictilisib; first compound 1 µM) | relative viability (MK-2206 + Crizotinib; first compound 0.01 µM) | relative viability (MK-2206 + Crizotinib; first compound 0.03162 µM) | relative viability (MK-2206 + Crizotinib; first compound 0.3162 µM) | relative viability (MK-2206 + Crizotinib; first compound 1 µM) | relative viability (MK-2206 + OSI-027; first compound 0.01 µM) | relative viability (MK-2206 + OSI-027; first compound 0.03162 µM) | relative viability (MK-2206 + OSI-027; first compound 0.3162 µM) | relative viability (MK-2206 + OSI-027; first compound 1 µM) | relative viability (Pictilisib + Foretinib; first compound 0.02 µM) | relative viability (Pictilisib + Foretinib; first compound 0.06325 µM) | relative viability (Pictilisib + Foretinib; first compound 0.6325 µM) | relative viability (Pictilisib + Foretinib; first compound 2 µM)
1 | NCI-H661 | 0.538 | 0.574 | 0.591 | 0.528 | 0.431 | 0.422 | 0.511 | 0.312 | 0.952 | 0.911 | 0.809 | 0.961 | 0.729 | 0.659 | 0.563 | 0.584 | 1.01 | 1.06 | 1.05 | 0.645
2 | CAL-12T | – | – | – | – | 0.58 | 0.455 | 0.465 | 0.229 | 0.546 | 0.688 | 0.488 | 0.491 | 0.67 | 0.554 | 0.452 | 0.485 | 1.09 | 1.14 | 1.08 | 0.918
3 | HARA | 0.435 | 0.481 | 0.551 | 0.587 | 0.388 | 0.395 | 0.399 | 0.357 | 1.11 | 1.08 | 0.986 | 0.979 | 0.536 | 0.564 | 0.304 | 0.194 | 0.828 | 0.906 | 0.851 | 0.581
4 | NCI-H596 | 1.03 | 1.03 | 0.99 | 0.914 | 0.446 | 0.386 | 0.324 | 0.345 | 0.978 | 1 | 0.898 | 0.736 | 0.706 | 0.887 | 0.591 | 0.41 | 0.603 | 0.735 | 0.454 | 0.283
5 | LU99A | 0.854 | 0.937 | 0.921 | 0.903 | 0.327 | 0.314 | 0.261 | 0.289 | 0.609 | 0.647 | 0.524 | 0.535 | 0.318 | 0.335 | 0.219 | 0.283 | 1.04 | 0.866 | 0.674 | 0.464
6 | LC-2-ad | 0.748 | 0.79 | 0.859 | 0.881 | 0.452 | 0.63 | 0.502 | 0.352 | 0.494 | 0.453 | 0.435 | 0.42 | 0.76 | 0.837 | 0.592 | 0.383 | 0.959 | 0.948 | 0.662 | 0.491
7 | NCI-H1650 | 0.465 | 0.419 | 0.441 | 0.469 | 0.549 | 0.566 | 0.476 | 0.56 | 0.97 | 1.04 | 1.04 | 0.751 | 0.58 | 0.66 | 0.488 | 0.39 | 1.25 | 1.39 | 1.03 | 0.441
8 | NCI-H1915 | 0.263 | 0.252 | 0.264 | 0.251 | 0.866 | 1.1 | 0.88 | 0.947 | 0.911 | 0.923 | 0.874 | 0.905 | 0.646 | 0.693 | 0.606 | 0.496 | 1.07 | 1.12 | 1.1 | 1.02
9 | ABC-1 | 1.19 | 1.25 | 1.06 | 1.02 | 0.629 | 0.728 | 0.721 | 0.701 | 1.3 | 1.26 | 1.14 | 1.02 | 0.552 | 0.494 | 0.381 | 0.379 | 1.37 | 0.903 | 0.863 | 0.803
10 | HCC-44 | 0.959 | 0.968 | 0.934 | 0.908 | 0.804 | 0.619 | 0.496 | 0.392 | 0.826 | 0.787 | 0.756 | 0.818 | 0.496 | 0.441 | 0.472 | 0.205 | – | – | – | –
11 | HCC-78 | 0.678 | 0.666 | 0.643 | 0.699 | 0.25 | 0.202 | 0.204 | 0.162 | 0.348 | 0.33 | 0.289 | 0.286 | 0.394 | – | 0.351 | 0.285 | 0.488 | 0.5 | 0.392 | 0.308
12 | LXF-289 | 0.398 | 0.418 | 0.412 | 0.396 | 0.755 | 0.821 | 0.748 | 0.705 | 0.786 | 0.819 | 0.841 | 0.888 | 0.782 | 0.862 | 0.604 | 0.743 | 1.01 | 0.931 | 0.957 | 0.926
13 | 201T | 0.817 | 0.892 | 0.882 | 0.842 | 0.669 | 0.696 | 0.651 | 0.648 | 1.02 | 1.07 | 1.03 | 1.01 | 0.772 | 0.766 | – | 0.494 | 1.06 | 1.07 | 0.846 | 0.617
14 | NCI-H1734 | 0.527 | 0.516 | 0.469 | 0.447 | 0.475 | 0.463 | 0.329 | 0.393 | 0.772 | 0.725 | 0.468 | 0.521 | 0.603 | 0.572 | 0.366 | 0.356 | 0.918 | 0.641 | 0.579 | 0.35
15 | NCI-H1623 | – | – | – | – | – | – | – | – | – | – | – | – | 0.44 | 0.426 | 0.411 | 0.355 | 0.773 | 0.792 | 0.639 | 0.348
16 | NCI-H2126 | 0.575 | 0.528 | 0.526 | 0.574 | 0.522 | 0.47 | 0.491 | 0.468 | 1.01 | 1.02 | 1.01 | 0.979 | 0.709 | 0.683 | 0.567 | 0.48 | 1.23 | 1.14 | 0.931 | 0.423
